Assay: Solubility in hydrochloric acid (gastric juice)
Type: physicochemical

Compound: CCOC(=O)Nc1ccc(NCc2ccc(F)cc2)nc1N [Flupirtinmaleat]
- Löslichkeit in Salzsäure (Magensaft): löslich
